# Patent publication US10214492B2, “Heterocyclic inhibitors of MCT4” (Vettore, LLC, priority 2016, dated 2019)
# Assays:
# [1] = Pharmacokinetic assay in rat (IV 3 mg/kg, PO 10 mg/kg); type: in vivo; conditions: Male Sprague-Dawley rat; for Rat F: oral bioavailability; for Rat F / half-life: PO 10 mg/kg; for half-life / Vd: plasma; for half-life: read-out: Rat t1/2 (converted); for Vd: volume of distribution, read-out: Rat Vss
# Source text: (§1) The following are assays that may be used to evaluate the pharmacokinetic properties of Formula (I) in mouse or rat. The assays follow a common procedure recited below.
# (§2) 1. […] For PO (oral gavage), DMSO/PEG400 (10:90). Formulations freshly prepared on the day of dosing or prior to dosing. Storage at room temperature.
# (§3) 2. Test Species: For Mouse: Male CD1 strain, approximately 6-8 weeks in age, approximately 20-30 g. For Rat: Male Sprague-Dawley strain, approximately 6-8 weeks in age, approximately 200-300 g.
# (§4) 3. Dose Level: For IV, 3 mg/kg. For PO, 10 mg/kg.
# (§5) 4. Number of animals: 3 per assay.
# (§6) 5. PK time points: For IV (plasma): 5 min, 15 min, 1, 2, 4, 6, 8, 24 h post dose. For PO (plasma): 15 min, 30 min, 1, 2, 4, 6, 8, 24 h post dose.
# (§7) 6. Blood Sample Collection and Processing. Blood was collected (˜0.2 mL per time point) from jugular vein. Blood of each sample was transferred into plastic micro centrifuge tubes containing anticoagulant of EDTA-K2. Blood samples were centrifuged at 2,000 g for 5 minutes at 4° C. to obtain plasma.
# (§8) 7. Samples Analysis: Plasma samples were analyzed using LC/MS/MS method, and pharmacokinetic parameters (half-life: t1/2; oral bioavailability: F; volume of distribution: Vss).
# [2] = Metabolic stability in human liver microsomes (in vitro t1/2); type: in vitro ADME; conditions: for half-life at 2 µM: human liver microsomes 0.5 mg/mL, 2 μM compound, read-out: Human microsome t1/2, min; for Human microsome % 60 min: human liver microsomes
# Summary of the method: (§9)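 Test compound (2 μM final) was added to NADPH-supplemented microsomes at 0.5 mg/mL protein and sampled over 60 min (0–60 min time points). In vitro t1/2 was calculated as −0.693/k, with k the slope of ln percent parent remaining, measured by LC-MS/MS, against time.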
# [3] = Metabolic stability in mouse liver microsomes (in vitro t1/2); type: in vitro ADME; conditions: for half-life at 2 µM / Mouse microsome t1/2, min: mouse liver microsomes 0.5 mg/mL, 2 μM compound; for half-life at 2 µM: read-out: Mouse microsome t1/2, min; for Mouse microsome % 60 min: mouse liver microsomes
# Summary of the method: as §9
# [4] = Pharmacokinetic assay in mouse (IV 3 mg/kg, PO 10 mg/kg); type: in vivo; conditions: Male CD1 mouse; for Mouse F: oral bioavailability; for Mouse F / half-life: PO 10 mg/kg; for half-life / Vd: plasma; for half-life: read-out: Mouse t1/2 (converted); for Vd: volume of distribution, read-out: Mouse Vss
# Source text: as §1, §2, §3, §4, §5, §6, §7, §8
# [5] = Adjuvant-induced arthritis model in rat: Difference of Weight Bearing test (DWB); type: in vivo; conditions: SD rat, CFA-induced arthritis; PO 3 days post CFA; compared to Dexamethasone
# [6] = Adjuvant-induced arthritis model in rat: Mechanical Allodynia test (MA, Von Frey); type: in vivo; conditions: SD rat, CFA-induced arthritis; PO 3 days post CFA; compared to Dexamethasone
# MCT4 = MCT4 (Homo sapiens (Human), UniProt O15427); experiment: Assay 3: MCT4-mediated lactate transport in MDA-MB-231 breast cancer cells; type: cell-based; conditions: MDA-MB-231 cells; lactate transport
# MCT4, sequence (O15427 whole entry, looked up): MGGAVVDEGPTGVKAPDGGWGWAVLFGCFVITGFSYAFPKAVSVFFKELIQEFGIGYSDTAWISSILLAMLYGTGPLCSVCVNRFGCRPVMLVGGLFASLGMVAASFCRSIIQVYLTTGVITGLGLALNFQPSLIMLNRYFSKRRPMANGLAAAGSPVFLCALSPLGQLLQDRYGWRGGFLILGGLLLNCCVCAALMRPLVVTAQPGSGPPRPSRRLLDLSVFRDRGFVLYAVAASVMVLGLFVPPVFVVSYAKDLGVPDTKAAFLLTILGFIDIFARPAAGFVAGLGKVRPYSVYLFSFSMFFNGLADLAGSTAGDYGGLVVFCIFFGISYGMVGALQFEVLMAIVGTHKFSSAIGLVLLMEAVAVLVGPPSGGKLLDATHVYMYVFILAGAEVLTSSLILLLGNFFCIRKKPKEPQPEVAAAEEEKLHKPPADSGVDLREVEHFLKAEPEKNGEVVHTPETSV
# MCT4, sequence (P35613 whole entry partner, looked up): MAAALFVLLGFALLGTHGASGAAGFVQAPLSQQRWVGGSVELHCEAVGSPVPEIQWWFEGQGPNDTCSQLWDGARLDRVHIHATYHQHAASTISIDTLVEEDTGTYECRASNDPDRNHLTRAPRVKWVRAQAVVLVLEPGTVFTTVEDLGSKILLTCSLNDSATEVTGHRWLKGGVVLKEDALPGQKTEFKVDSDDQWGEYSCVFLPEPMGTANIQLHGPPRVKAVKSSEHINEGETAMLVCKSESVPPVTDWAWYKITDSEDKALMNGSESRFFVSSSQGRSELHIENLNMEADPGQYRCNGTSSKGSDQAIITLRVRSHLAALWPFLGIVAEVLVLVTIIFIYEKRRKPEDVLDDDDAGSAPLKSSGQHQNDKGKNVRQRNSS
# Summary of the method: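 Read-out is BCECF fluorescence tracking the intracellular pH shift from MCT4-mediated lactate/H+ co-transport. Before measurement, MDA-MB-231 cells take up BCECF-AM for 5 min at 37° C, then are washed into Tyrode's Solution, pH 7.4.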
# MCT1 = MCT1 (Homo sapiens (Human), UniProt P53985); experiment: Assay 4: MCT1-mediated lactate transport in BT20 breast cancer cells; type: cell-based; conditions: Table 27
# MCT1, sequence (P53985 whole entry): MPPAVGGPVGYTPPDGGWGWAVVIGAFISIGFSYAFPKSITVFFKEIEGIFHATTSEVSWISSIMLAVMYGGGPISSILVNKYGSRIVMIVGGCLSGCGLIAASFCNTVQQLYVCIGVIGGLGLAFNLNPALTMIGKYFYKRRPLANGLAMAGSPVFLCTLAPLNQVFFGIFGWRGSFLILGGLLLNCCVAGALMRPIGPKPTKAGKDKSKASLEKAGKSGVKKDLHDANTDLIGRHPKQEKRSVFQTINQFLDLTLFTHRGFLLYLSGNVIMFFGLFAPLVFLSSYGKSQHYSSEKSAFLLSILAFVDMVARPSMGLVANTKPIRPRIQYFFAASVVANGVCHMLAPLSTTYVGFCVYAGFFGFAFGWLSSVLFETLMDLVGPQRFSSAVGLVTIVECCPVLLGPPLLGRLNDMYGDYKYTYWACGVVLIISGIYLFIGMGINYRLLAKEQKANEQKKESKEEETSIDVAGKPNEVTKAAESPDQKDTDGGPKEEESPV
# MCT1, sequence (P35613 140-385 partner): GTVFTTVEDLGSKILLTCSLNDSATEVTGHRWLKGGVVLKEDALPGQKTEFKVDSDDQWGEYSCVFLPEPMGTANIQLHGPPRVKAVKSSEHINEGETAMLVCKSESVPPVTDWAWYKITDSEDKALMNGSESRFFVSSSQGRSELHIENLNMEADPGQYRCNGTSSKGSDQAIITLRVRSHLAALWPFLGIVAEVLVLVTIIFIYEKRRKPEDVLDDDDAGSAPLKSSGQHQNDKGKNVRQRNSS
# Summary of the method: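 Transport started with 10 mM L-lactate on BCECF-loaded BT20 cells in Tyrode's Solution, pH 7.4. Dye loading: BCECF-AM ester (30 mM DMSO stock), 5 min at 37° C, then one wash.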
# [7] = Metabolic stability in rat liver microsomes (in vitro t1/2); type: in vitro ADME; conditions: for half-life at 2 µM: read-out: Rat microsome t1/2, min; for Rat microsome % 60 min: rat liver microsomes
# Summary of the method: as §9
# [8] = rat liver microsomes 0.5 mg/mL, 2 μM compound
Compound,Rat F [1],half-life [1],Vd [1],half-life at 2 µM [2],Human microsome % 60 min [2],half-life at 2 µM [3],Mouse microsome % 60 min [3],Mouse F [4],half-life [4],Vd [4],IC50 (MCT4),IC50 (MCT1),"half-life at 2 µM [7, 8]",Rat microsome % 60 min [7],"Mouse microsome t1/2, min [3]","Rat microsome t1/2, min [7, 8]","Difference in Weight Bearing, Minimal Efficacious Dose [5]","Mechanical Allodynia (Von Frey), Minimal Efficacious Dose [6]"
"COc1cccc(-c2cc(COC(C)(C)C(=O)O)nn2Cc2ccccc2Cl)c1 [Example 14, 2-([1-[(2-Chlorophenyl)methyl]-5-(3-methoxyphenyl)1H-pyrazol-3-yl]methoxy)-2-methylpropanoic acid]",64%,3.8 h,1.3 L/kg,4.08 h,82%,21.7 h,95%,100%,5.4 h,0.79 L/kg,–,–,–,–,–,–,30 mg/kg,30 mg/kg
"CC(C)(OCc1cc(-c2cccc(OC3CC3)c2)n(-c2ccccc2Cl)n1)C(=O)O [Example 110, 2-([1-(2-Chlorophenyl)-5-(3-cyclo-propoxyphenyl)-1H-pyrazol-3-yl)methoxy)-2-methylpropanoic acid]",84%,4.7 h,0.34 L/kg,39.6 h,99%,3.72 h,86%,100%,26.7 h,0.81 L/kg,20 nM,30000 nM,9.15 h,94%,–,–,10 mg/kg,10 mg/kg
"CCn1ncc2ccc(-c3cc(COC(C)(C)C(=O)O)nn3Cc3ccccc3Cl)cc21 [Example 150, 2-([1-[(2-Chlorophenyl)methyl]-5-(1-ethyl-1H-indazol-6-yl)-1H-pyrazol-3-yl]-methoxy)-2-methylpropanoic Acid]",43%,3.6 h,1.2 L/kg,5.68 h,90%,–,103%,89%,4.9 h,9.9 L/kg,2.8 nM,25000 nM,28.6 h,98%,∞,–,10 mg/kg,10 mg/kg
"CC(C)COc1cccc(-c2cc(COC(C)(C)C(=O)O)nn2-c2cccc3cnn(C)c23)c1 [Example 170, 2-methyl-2-([1-(1-methyl-1H-indazol-7-yl)-5-[3-(2-methylpropoxy)phenyl]-1H-pyrazol-3-yl]methoxy]propanoic acid]",18%,2.4 h,1.1 L/kg,7.85 h,87%,–,99%,100%,2.6 h,2 L/kg,2 nM,32000 nM,–,95%,∞,∞,3 mg/kg,3 mg/kg
"Cn1ncc2cccc(-n3nc(COC(C)(C)C(=O)O)cc3-c3cccc(OC4CC4)c3)c21 [Example 191, 2-([5-(3-Cyclopropoxyphenyl)-1-(1-methyl-1H-indazol-7-yl)-1H-pyrazol-3-yl]-methoxy)-2-methylpropanoic acid]",97%,6.3 h,1 L/kg,23.4 h,98%,16.8 h,97%,–,–,–,17 nM,16000 nM,9.27 h,94%,–,–,>10 mg/kg,>10 mg/kg
"COc1cc(OC)cc(-c2cc(COC(C)(C)C(=O)O)nn2Cc2ccccc2Cl)c1 [Example 224, 2-([1-[(2-Chlorophenyl)methyl]-5-(3,5-di-methoxyphenyl)-1H-pyrazol-3-yl]methoxy)-2-methylpropanoic acid]",53%,2.6 h,1.3 L/kg,12.3 h,91%,13.8 h,98%,–,–,–,4.1 nM,30000 nM,2.2 h,73%,–,–,≤10 mg/kg,≤10 mg/kg
"CC(C)(OCc1cc(-c2cccc(OC3CCC3)c2)n(-c2ccccc2N2CCC2)n1)C(=O)O [Example 260, 2-([1-[2-(Azetidin-1-yl)phenyl]-5-(3-cyclobutoxyphenyl)-1H-pyrazol-3-yl]methoxy)-2-methylpropanoic acid]",85%,3.7 h,0.2 L/kg,–,–,–,–,86%,5.2 h,0.22 L/kg,0.83 nM,26000 nM,–,–,–,–,1 mg/kg,1 mg/kg

# Now from value to compound, other results behind:
Rat F [1],half-life [1],Vd [1],half-life at 2 µM [2],Human microsome % 60 min [2],half-life at 2 µM [3],Mouse microsome % 60 min [3],Mouse F [4],half-life [4],Vd [4],IC50 (MCT4),IC50 (MCT1),"half-life at 2 µM [7, 8]",Rat microsome % 60 min [7],"Mouse microsome t1/2, min [3]","Rat microsome t1/2, min [7, 8]",Compound,"Difference in Weight Bearing, Minimal Efficacious Dose [5]","Mechanical Allodynia (Von Frey), Minimal Efficacious Dose [6]"
100%,4.6 h,2.5 L/kg,–,–,–,–,94%,2.7 h,1.1 L/kg,0.35 nM,10000 nM,–,–,–,–,"CCOc1ccccc1Cn1nc(CO[C@](C)(CC)C(=O)O)cc1-c1cc(OC)cc(OC)c1 [Example 264, (2R)-2-([5-(3,5-Dimethoxyphenyl)-1-[(2-ethoxyphenyl)methyl]-1H-pyrazol-3-yl]methoxy)-2-methylbutanoic acid]",1 mg/kg,1 mg/kg
100%,2.7 h,0.23 L/kg,–,–,–,–,100%,3.8 h,0.36 L/kg,0.36 nM,64000 nM,–,–,–,–,CC[C@@](C)(OCc1cc(-c2cccc(OC3CC3)c2)n(-c2ccccc2N2CCC2)n1)C(=O)O [Example 266],3 mg/kg,3 mg/kg
54%,2.6 h,7.7 L/kg,–,–,–,–,64%,3.3 h,3.9 L/kg,0.57 nM,11000 nM,–,–,–,–,"CCCn1ncc2ccc(-c3cc(CO[C@](C)(CC)C(=O)O)nn3-c3ccccc3N3CCC3)cc21 [Example 267, (2R)-2-([1-(2-(azetidin-1-yl)phenyl]-5-(1-propyl-1H-indazol-6-yl)-1H-pyrazol-3-yl]methoxy)-2-methylbutanoic acid]",3 mg/kg,3 mg/kg
57%,2.2 h,0.76 L/kg,–,–,–,–,77%,2.7 h,0.77 L/kg,0.3 nM,36000 nM,–,–,–,–,"CCn1ncc2ccc(-c3cc(CO[C@](C)(CC)C(=O)O)nn3-c3ccccc3N3CCCC3)cc21 [Example 268, (2R)-2-([5-(1-ethyl-1H-indazol-6-yl)-1-[2-(pyrrolidin-1-yl)phenyl)-1H-pyrazol-3-yl]methoxy)-2-methylbutanoic acid]",1 mg/kg,1 mg/kg
